Results from patent US20230310435A1, “HOST DEFENSE PROTEIN (HDP) MIMETICS FOR PROPHYLAXIS AND/OR TREATMENT OF INFLAMMATORY DISEASES OF THE GASTROINTESTINAL TRACT” (priority 2015, published 2023).
“And” between values parts separate entries of the source, which are not always exact repeats. Identical values can stand only once. Counter-ions that a name gives are not always drawn.

Columns and labels:
human PDE4B2 = human PDE4B2 (Homo sapiens, UniProt Q07343); test: PDE-Glo phosphodiesterase assay, PDE4; assay type: biochemical; details: 8 ng PDE4B, 1 μM cAMP substrate, 15 min pre-incubation; read-out: IC50, inhibition of PDE4
Chain of human PDE4B2 (Q07343 1-564 isoform Q07343-2): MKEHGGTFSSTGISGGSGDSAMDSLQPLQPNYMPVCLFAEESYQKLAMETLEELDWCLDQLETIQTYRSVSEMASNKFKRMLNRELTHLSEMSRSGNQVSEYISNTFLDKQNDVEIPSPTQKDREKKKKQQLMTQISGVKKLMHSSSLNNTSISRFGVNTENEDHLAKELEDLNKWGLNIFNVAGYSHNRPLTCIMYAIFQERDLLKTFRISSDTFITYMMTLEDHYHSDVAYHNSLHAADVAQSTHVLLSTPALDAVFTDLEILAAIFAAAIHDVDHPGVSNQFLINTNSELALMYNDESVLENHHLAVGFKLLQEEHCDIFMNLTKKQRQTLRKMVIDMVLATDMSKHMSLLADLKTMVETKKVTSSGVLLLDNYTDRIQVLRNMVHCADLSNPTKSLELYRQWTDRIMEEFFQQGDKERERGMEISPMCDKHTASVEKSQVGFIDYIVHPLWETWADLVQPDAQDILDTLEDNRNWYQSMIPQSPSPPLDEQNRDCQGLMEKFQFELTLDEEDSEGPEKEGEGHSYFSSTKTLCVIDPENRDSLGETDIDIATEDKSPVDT
Experimental: Method for FIG. 1. […] The compounds and PDE4B (BPS Biosciences, San Diego, CA) were mixed and pre-incubated at room temperature for 15 minutes. Substrate was added and the reaction was incubated for 7 minutes at room temperature. Data are presented as luminescence units (RLU).
Method for FIG. 2. Phosphodiesterase inhibition assays of PDE4 were performed, using PMX-60056. The PDE-Glo phosphodiesterase assay (Promega, Madison, WI, USA Catalog No. V1361) was performed using 8 ng of PDE4B (BPS Biosciences, San Diego, CA). […] The compounds and PDE4B were mixed and pre-incubated at room temperature for 15 minutes. Substrate was added and the reaction was incubated for 7 minutes at room temperature. Data are presented as luminescence units (RLU).
Phosphodiesterase type 4 (PDE4) is predominant phosphodiesterase expressed in neutrophils, T cells and macrophages. PDE inhibitors show broad spectrum of anti-inflammatory effects in almost all inflammatory cells. PDE4 inhibitors, block the degradative action of PDE4 on cAMP, thereby increasing intracellular levels of cAMP levels which mediate phosphorylation of protein kinases. […] Data are presented as luminescence units (RLU).
The PDE-Glo phosphodiesterase assay was performed according to the Method described for FIG. 2, using 8 ng of PDE4B, 1 μM cAMP substrate PMX-60056. Data are presented as luminescence units (RLU). […]

[1] = system: LPS-induced TNF-α release, NR8383 cells; test: LPS-induced TNF-α production in NR8383 rat macrophages (ELISA); assay type: cell-based
Experimental: Method for FIG. 5. TNF-alpha assays were performed using PMX-30063. […] TNF-α concentrations in the supernatants were determined by ELISA using an immunoassay kit specific for rat TNF-α (R&D Systems, Minneapolis, MN) according to manufacturer's instructions.
Method for FIG. 6. TNF-alpha assays were performed using PMX-60056. NR8383 rat macrophage cells were pretreated with PMX-60056 for 45 minutes followed by treatment with 1 μg/ml LPS from E. coli (Sigma, St. Louis, MO) for 8 hours. TNF-α concentrations in the supernatants were determined by ELISA using an immunoassay kit specific for rat TNF-α (R&D Systems, Minneapolis, MN) according to manufacturer's instructions.
The TNF-α inhibition assay was performed according to the Method described for FIG. 5. […] TNF-α concentrations in the supernatants were determined by ELISA using an immunoassay kit specific for rat TNF-α (R&D Systems).
The TNF-α inhibition assay was performed according to the Method described for FIG. 6. NR8383 rat macrophage cells (CRL-2192. ATCC) were pretreated with PMX-60056 for 45 minutes followed by treatment with 1 μg/ml LPS for 8 hours. TNF-α concentrations in the supernatants were determined by ELISA using an immunoassay kit specific for rat TNF-α (R&D Systems).
(§1) PDE4 and PDE3 inhibition results in subsequent down-regulation of pro-inflammatory cytokines/chemokines and its regulators, and experiments were conducted to confirm such down-regulation by brilacidin in ex vivo cell-based assays. In these assays, cells were exposed to brilacidin 45 minutes before an 8-hour lipopolysaccharide (LPS) stimulation in the presence of brilacidin; cytokine/enzyme concentrations were determined by ELISA using a standard immunoassay kit.

[2] = system: LPS-induced IL-1β release, NR8383 cells; test: LPS-induced IL-1β release in NR8383 rat alveolar macrophages (ELISA); assay type: cell-based; details: Macrophage, 8-hour brilacidin and LPS exposure, read-out: IC50, inhibition of LPS-induced IL-1β release
Experimental: To examine the effect of brilacidin on the pro-inflammatory cytokine IL-1β production in cells, rat alveolar macrophage (NR8383) cells were pretreated with a range of brilacidin concentrations for 45 minutes, followed by treatment with 1 μg/ml LPS from E. coli (Sigma, St. Louis, MO) for 8 hours in the presence of brilacidin. After 8 hours, supernatants were collected for IL-1β measurement by ELISA. IL-1β was measured using an immunoassay kit according to manufacturer's instructions (Thermo Scientific, Rockford, IL).
as §1

In the case of N=C(N)NCCCCC(=O)Nc1cc(C(F)(F)F)cc(NC(=O)c2cc(C(=O)Nc3cc(C(F)(F)F)cc(NC(=O)CCCCNC(=N)N)c3O[C@@H]3CCNC3)ncn2)c1O[C@@H]1CCNC1 [PMX-30063, N^4,N^6-bis(2-((R)-pyrrolidin-3-yloxy)-3-((4-carbamoylbutyl)guanidine)-5-(trifluoromethyl)phenyl)pyrimidine-4,6-dicarboxamide tetrahydrochloride salt], the IC50 (human PDE4B2) is reported as ~3 µM and 3 µM, the “effect on LPS-induced TNF-α production (in words)” value ([1]; NR8383, 45 min pretreatment, 1 μg/ml LPS 8 h) is reported as “inhibited” and the inhibition at 0.5 µM ([1]; Rattus norvegicus, Macrophage, 8 h) is reported as ~50%. It also gave an IC50 ([1]; Rattus norvegicus, Macrophage, NR8383 cells, ELISA, 45 min pretreatment, 8-hour LPS, read-out: IC50, inhibition of LPS-induced TNF-α release) of 0.442 µM and an IC50 [2] of 0.702 µM.
